# Patent US12600696B2 (XENIOPRO GMBH, priority 2017, dated 2026)
# Test system: CAL-27 cells (human tongue squamous cell carcinoma cells)
# Assay: alamarBlue proliferation assay with CAL-27 cells
# Type: cell-based
# Conditions: for activity at 40 µM / activity at 20 µM: Homo sapiens, 120 h; for activity at 40 µM: relative to DMSO basis level 1.0, read-out: weighted arithmetic mean (AVEw) of normalized fluorescence intensity, activity range; for activity at 20 µM: relative to DMSO baseline level of 1.0, read-out: AVEw, weighted arithmetic mean of normalized fluorescence intensity values (Activity Range), CAL-27 proliferation
# In short: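 CAL-27 cells seeded at 2000 per well, exposed to compound in 0.1% DMSO for 5 days, then alamarBlue fluorescence (ex 560/em 590 nm). Values normalized to DMSO wells (1.0) as weighted means with combined standard deviation; growth inhibition judged at 20 μM reference concentration.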
SMILES,activity at 40 µM,activity at 20 µM (5 days),"AVEw, weighted arithmetic mean of normalized fluorescence intensity values, CAL-27 proliferation (40 μM (control RES 40 μM), 5 days, relative to DMSO baseline level of 1.0)","weighted arithmetic mean (AVEw) of normalized fluorescence intensity (control RES at 20 μM, relative to DMSO basis level 1.0)"
"NC(=O)c1ccc(Oc2ccc(C3CC4CCC3C4)cc2)cc1 (racemic) [Compound 159, (±)-4-(4-(Bicyclo[2.2.1]heptan-2-yl)phenoxy)benzamide]",60 to 70%,,,
"CCCc1ccc(Oc2ccc(C(=O)NO)cc2)cc1 [Compound 166, N-hydroxy-4-(4-propylphenoxy)benzamide]",0 to 20%,20 to 40%,,
"CCC(C)(C)c1ccc(Oc2ccc(C(=O)NO)cc2)cc1 [Compound 171, N-hydroxy-4-(4-(tert-pentyl)phenoxy)benzamide]",,0 to 20%,,
"O=C(NO)c1ccc(Oc2ccc(C3CCCCC3)cc2)cc1 [Compound 182, 4-(4-cyclohexylphenoxy)-N-hydroxybenzamide]",,20 to 40%,,
"O=C(NO)c1ccc(Oc2ccc(C34CC5CC(CC(C5)C3)C4)cc2)cc1 [Compound 186, 4-(4-(Adamantan-1-yl)phenoxy)-N-hydroxybenzamide]",,0 to 20%,,
"CC(C)c1ccc(Oc2ccc(C(=O)NO)cn2)cc1 [Compound 272, N-hydroxy-6-(4-isopropylphenoxy)nicotinamide]",0 to 20%,0 to 20%,,
"CCC(C)(C)c1ccc(Oc2ccc(C(=O)NO)cn2)cc1 [Compound 273, N-hydroxy-6-(4-(tert-pentyl)phenoxy)nicotinamide]",,0 to 20%,,
"O=C(NO)c1ccc(Oc2ccc(C3CCCCC3)cc2)nc1 [Compound 284, 6-(4-Cyclohexylphenoxy)-N-hydroxynicotinamide]",,0 to 20%,,
"O=C(NO)c1ccc(Oc2ccc(C3CC4CCC3CC4)cc2)nc1 (stereo not shown) [Compound 287, 6-(4-((1s,4s)-bicyclo[2.2.2]octan-2-yl)phenoxy)-N-hydroxynicotinamide]",0 to 20%,20 to 40%,,
"O=C(NO)c1ccc(Oc2ccc(C34CC5CC(CC(C5)C3)C4)cc2)nc1 [Compound 288, 6-(4-((3r,5r,7r)-adamantan-1-yl)phenoxy)-N-hydroxynicotinamide]",,20 to 40%,,
"CNC(=O)c1ccc(Oc2ccc(C(F)(F)F)cc2)nc1 [Compound 300, N-methyl-6-(4-(trifluoromethyl)phenoxy)nicotinamide]",80 to 90%,80 to 90%,,
"CN(C)C(=O)c1ccc(Oc2ccc(C3CCCCC3)cc2)nc1 [Compound 334, 6-(4-cyclohexylphenoxy)-N,N-dimethylnicotinamide]",80 to 90%,,,
"O=C(NO)c1ccc(Oc2ccc(C34CC5CC(CC(C5)C3)C4)cc2)c(F)c1 [Compound 544, 4-(4-(Adamantan-1-yl)phenoxy)-3-fluoro-N-hydroxybenzamide]",,0 to 20%,,
"O=C(NO)c1cnc(Oc2ccc(C3CCCCC3)cc2)c(F)c1 [Compound 644, 6-(4-Cyclohexylphenoxy)-5-fluoro-N-hydroxynicotinamide]",,0 to 20%,,
"Oc1ccc(C=Cc2cc(O)cc(O)c2)cc1 [RES, resveratrol, reference compound]",50%,90%,0.4 ± 0.0,0.9 ± 0.0
